One assay addresses LCK (Homo sapiens, UniProt P06239). Put plainly: Preliminary safety test on human LCK kinase. Format: biochemical. The protocol:
We explored the binding mode by also testing compounds on the gatekeeper mutant enzyme TQ PfPKG. […] A preliminary safety test was performed on human AuroraB and LCK kinases which often underpin toxicity issues. […] Further assays for compound characterization included determination of solubility and cytotoxicity (HepG2 inhibition).

For the next assay, the system named is HepG2 cells. The experiment in a line: Cytotoxicity assay (CellTiter-Glo). The conditions noted are these: Homo sapiens; HepG2 cytotoxicity; read-out: HepG2. Format: cell-based. The protocol:
Cytotoxicity assays were performed on HepG2 cells as previously described. HepG2 cells were removed from a T-175 TC flask using 5 mL Eagle’s MEM (containing 10% FBS, 1% NEAA, 1% penicillin/streptomycin) and dispersed in the medium. Seeding density was checked to ensure that new mono-layers were not more than 50% confluent at the time of harvesting. Cells were added to 500 mL of the same medium at a final density of 1.2 × 10^5 cells/mL. They were then dispensed (25 μL, about 3,000 cells per well) into 384-well clear-bottom plates using a Multidrop Combi dispenser. Test compounds (250 nL) were dispensed into the plates with an EchoH liquid handler prior to addition of the cells. Plates were incubated for 48 h at 37 °C, 5% CO2. After incubation, plates were equilibrated at room temperature for 30 minutes before proceeding to develop the luminescent signal. The CellTiter-GloH Reagent was allowed to equilibrate at room temperature for 30 minutes and added to the plates (25 μL per well) using a Multidrop Combi dispenser. Plates were left for 10 minutes at room temperature for stabilization and then read using a Perkin Elmer ViewLux.

A further assay concerns the target T1, WT PfPKG (Plasmodium falciparum, UniProt Q8I719).
T1 construct: recombinant full length wild type (WT) PfPKG; His6 (N); host or cells: E. coli BL21
The experiment in a line: Kinase Glo enzymatic assay, recombinant WT PfPKG. Format: biochemical, P. falciparum. The method, then: To identify new PKG inhibitor scaffolds, the 1.7 million GlaxoSmithKline Full Diversity collection was tested at a single final concentration of 10 μM against recombinant full length wild type (WT) PfPKG using a Kinase Glo-based assay (Promega). The results gave a robust Z′ mean value of 0.85. At an average statistical cut-off of 30%, 20,174 primary hits were identified with an overall hit rate of 1%. Fresh samples of these primary hits were tested in duplicate against WT PfPKG and also against human PKGIα (HuPKGIα) (Supplementary Fig. 1) at a final concentration of 10 μM (confirmation step).
Protein production was outsourced to the Division of Signal Transduction Therapy, University of Dundee. Briefly, the pTRChis expression vectors (Invitrogen) containing an N-terminally His6-tagged PfPKG wildtype and T618Q were used to transform BL21 cells (protocol adapted from[23]). The cells were grown at 37 °C until the OD600 was 0.4–0.6 then the temperature was reduced to 15 °C and the cells were induced with 250 µM IPTG and grown for a further 16–18 hours before harvesting. The His6-PfPKG was purified on Cobalt agarose followed by gel filtration and the protein was dialysed into 25 mM Hepes pH 7.5, 0.1 mM EGTA, 150 mM NaCl, 50% glycerol and 2 mM DTT.
Initial optimization of the PKG assay was performed manually in 384-well plates and analysed with GraFit 7. The buffer for all assays was 25 mM HEPES pH 7.3 (GIBCO), 10 mM MgCl2 (Sigma), 2 mM DTT (Sigma), 0.01 mM cGMP (Sigma), 0.1 mg/ml BSA (Ambion). Enzymatic activity was tested using a luminescence-based kit (Promega KinaseGlo). Addition of the first reagent depletes the unused ATP and addition of the second reagent converts ADP (product of the kinase reaction) to ATP, which is then measured through a luciferin/luciferase reaction. The amount of luminescence is directly proportional to ATP turnover by the kinase. The kit was chosen because it can be miniaturized to small volumes (i.e. 4 µl) in 1536-well plates, for use in HTS.
We used PKA peptide substrate (SCP0212, Sigma-Aldrich) for WT and TQ PfPKG, dissolved in milliQ water at a final concentration of 5 mM, and Long S6 peptide substrate (produced at the University of Dundee, sequence […]) for HuPKGIα, dissolved in water at a final concentration of 30 mM.
We calculated the Michaelis-Menten (Km) constant for ATP and peptide substrate (PKA or Long S6) for all enzymes using GraphPad Prism (Supplementary Figs 2 and 3 and Supplementary Table 3). In order to identify different types of PKG inhibitors, including ATP competitive or non-competitive inhibitors, as well as inhibitors that bind to the peptide substrate pocket, we performed all assays using ATP and peptide substrate at a concentration equal to the Km. We also determined enzyme activity by calculating ATP turnover (Kcat) over the Km (Supplementary Table 3). The Kcat was calculated as (Vmax*slope)/[E] where Vmax is the maximum velocity and [E] is the concentration of the enzyme.
The plates containing the compounds were prepared at GSK in Upper Providence or Stevenage. Compounds were tested at a single final concentration of 10 µM or in a dose response with a range of concentrations starting from 100 μM to 1.6 nM (1 in 3 serial dilutions). Compounds were dispensed in the plates at the required concentration in a 40 nl volume. All plates (1536-well white Greiner) contained 40 nl of DMSO in lanes 11 and 12 (control 1, 100% enzyme activity) and were empty in lanes 35 and 36 (control 2, 0% enzyme activity). The plates were removed from −20 °C 1 hour before starting the assay. Using a Multidrop Combi dispenser (Thermo Scientific), 2 µl of the buffer containing ATP and the substrate were added to all wells then 2 µl of buffer only were added to column 35 and 36. Finally 2 µl of buffer containing the enzyme were dispensed in all the plate wells except for lanes 35 and 36. […]

Where [1] appears, read: WT PfPKG (μM), recombinant WT PfPKG.

T1 sequence (Q8I719 whole entry): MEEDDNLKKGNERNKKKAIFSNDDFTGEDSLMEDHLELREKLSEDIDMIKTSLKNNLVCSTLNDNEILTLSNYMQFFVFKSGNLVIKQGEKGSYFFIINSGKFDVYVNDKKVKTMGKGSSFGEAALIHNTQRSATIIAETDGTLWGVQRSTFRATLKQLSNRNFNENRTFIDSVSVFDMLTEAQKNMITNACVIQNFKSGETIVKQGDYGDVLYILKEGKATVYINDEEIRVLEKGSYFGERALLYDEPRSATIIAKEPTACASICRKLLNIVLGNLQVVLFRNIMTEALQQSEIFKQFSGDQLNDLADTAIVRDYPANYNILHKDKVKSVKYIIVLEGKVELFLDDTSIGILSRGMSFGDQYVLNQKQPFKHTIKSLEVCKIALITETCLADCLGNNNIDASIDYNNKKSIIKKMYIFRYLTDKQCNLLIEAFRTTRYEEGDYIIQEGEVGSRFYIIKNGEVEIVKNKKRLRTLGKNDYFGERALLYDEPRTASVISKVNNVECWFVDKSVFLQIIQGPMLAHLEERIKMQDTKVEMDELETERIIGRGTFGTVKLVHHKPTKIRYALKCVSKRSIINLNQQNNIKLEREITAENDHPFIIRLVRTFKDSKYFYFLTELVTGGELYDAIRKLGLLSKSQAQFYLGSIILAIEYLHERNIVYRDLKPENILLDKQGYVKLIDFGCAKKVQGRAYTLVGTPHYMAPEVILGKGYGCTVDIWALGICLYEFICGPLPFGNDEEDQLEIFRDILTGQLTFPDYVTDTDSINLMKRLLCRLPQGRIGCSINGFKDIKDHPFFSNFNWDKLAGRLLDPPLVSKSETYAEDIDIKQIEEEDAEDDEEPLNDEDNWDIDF
Sequence of LCK (P06239 whole entry): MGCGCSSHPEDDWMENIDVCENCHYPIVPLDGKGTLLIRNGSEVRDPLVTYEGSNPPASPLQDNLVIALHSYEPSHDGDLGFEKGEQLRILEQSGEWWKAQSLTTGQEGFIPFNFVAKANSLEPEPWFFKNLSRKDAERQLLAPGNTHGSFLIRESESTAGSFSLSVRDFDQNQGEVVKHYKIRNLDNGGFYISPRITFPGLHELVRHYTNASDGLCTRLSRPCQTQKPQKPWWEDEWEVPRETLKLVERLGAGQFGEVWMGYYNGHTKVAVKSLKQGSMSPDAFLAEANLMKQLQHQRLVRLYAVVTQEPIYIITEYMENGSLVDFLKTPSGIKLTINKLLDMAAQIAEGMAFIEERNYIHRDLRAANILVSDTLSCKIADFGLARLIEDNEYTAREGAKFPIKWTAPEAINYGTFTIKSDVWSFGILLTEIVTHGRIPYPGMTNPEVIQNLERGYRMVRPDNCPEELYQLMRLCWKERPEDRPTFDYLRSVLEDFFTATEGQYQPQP

For `CCn1cc(-c2ccncn2)c(-c2cccc(NS(=O)(=O)c3cc(F)ccc3F)c2)n1` [Compound 2], the IC50 against LCK was 7.9 µM; in the assay with HepG2 cells, more than 100 µM; at WT PfPKG (setting [1]), 0.041 µM.

As for `Cc1ccc(S(C)(=O)=O)cc1Nc1nccc(-c2sc(CC(N)=O)nc2-c2ccccc2)n1` [Compound 3], the IC50 against LCK was 0.251 µM; in the assay on HepG2 cells, 50.1 µM; on WT PfPKG (setting [1]) it was 0.013 µM.

For the compound `CC(C)(CN)c1cc(-c2ccc(Cl)c(O)c2)c(-c2ccncc2)o1` [Compound 4], the IC50 against LCK came to 0.126 µM; with HepG2 cells, 12.6 µM; at WT PfPKG (IC50 (WT PfPKG activity), Figure 3, most scored compound of each cluster and singletons), 0.002 µM; on WT PfPKG (setting [1]), 0.0017 µM.

`CCn1c(-c2nonc2N)nc2c(-c3ccccc3)ncc(CN(C)C3CCN(C)CC3)c21` [Compound 5]: the results for the IC50 at LCK, in the assay with HepG2 cells and on WT PfPKG (setting [1]) were 12.6 µM, 12.6 µM and 0.039 µM, respectively.

For the compound `CNS(=O)(=O)c1cccc(Nc2ccnc(Nc3cccc(S(=O)(=O)NC)c3)n2)c1` [Compound 6], the figures for the IC50 at LCK, in the assay on HepG2 cells and on WT PfPKG (setting [1]) were 2 µM, 25.1 µM and 0.07 µM, respectively.

For `COc1ccc(-c2c(-c3cccc(C(=O)N4CCN(C)CC4)c3)oc3ncnc(N)c23)cc1` [Compound 7], the figures for the IC50 on LCK, in the assay on HepG2 cells and at WT PfPKG (setting [1]) were 0.4 µM, more than 100 µM and 0.01 µM, respectively.

On to `COc1ccc(CCNC(=O)CSc2ncnc3[nH]ncc23)cc1OC` [Compound 8], for which the IC50 against LCK was more than 31.6 µM; in the assay on HepG2 cells it was more than 100 µM; at WT PfPKG (setting [1]), 0.104 µM.

As for `COc1cccc(Nc2nc(-c3ccncc3)cc(N3CCN(C)CC3)n2)c1` [Compound 9], the values for the IC50 on LCK, in the assay with HepG2 cells and on WT PfPKG (setting [1]) were more than 31.6 µM, 5 µM and 0.027 µM, respectively.

For `COc1cc(CS(C)(=O)=O)ccc1Nc1nc(Nc2cc(F)ccc2C(N)=O)c2cc[nH]c2n1` [Compound 10], the IC50 was more than 31.6 µM at LCK, more than 100 µM in the assay on HepG2 cells and 0.05 µM at WT PfPKG (setting [1]).

With `O=C(N[C@@H](CO)c1ccccc1)c1ccc2cncc(-c3cn[nH]c3)c2n1` [Compound 11], the IC50 on LCK is 1 µM; in the assay on HepG2 cells, more than 100 µM; on WT PfPKG (setting [1]), 0.094 µM.

For the compound `NCCNCc1ccc(-c2cc3ccncc3cc2OC2CCNCC2)s1` [Compound 12], the IC50 against LCK is 4 µM; with HepG2 cells it was more than 100 µM; on WT PfPKG (setting [1]) it was 0.324 µM.

As to `CNCCOc1cnc(-c2ccoc2C)c(-c2ccc3cnccc3c2)c1` [Compound 13], the IC50 at LCK amounted to 1.3 µM; in the assay with HepG2 cells it was 63.1 µM; on WT PfPKG (setting [1]) it was 0.007 µM.

For the compound `O=C(c1cccc(OCc2cccnc2)c1)N1CCc2sccc2C1CN1CCCCC1` (stereo not shown) [Compound 14], the IC50 at LCK was more than 31.6 µM; in the assay on HepG2 cells, more than 100 µM; on WT PfPKG (setting [1]) it was 0.036 µM.

For `Nc1ccc2c(-c3ccncc3)c(-c3ccc(Cl)c(O)c3)[nH]c2n1` [Compound 15], the IC50 is 5 µM against LCK, 20 µM with HepG2 cells and 0.022 µM on WT PfPKG (setting [1]).

With `Nc1nc(Nc2cccc3cnccc23)nn1C(=O)C1CCCCC1` [Compound 16], the IC50 against LCK is more than 31.6 µM; in the assay with HepG2 cells, 79.4 µM; at WT PfPKG (setting [1]), 0.09 µM.

Source of the values: PMC6504873, “High-throughput screening of the Plasmodium falciparum cGMP-dependent protein kinase identified a thiazole scaffold which kills erythrocytic and sexual stage parasites” (Scientific Reports, 2019).
